This is an account of results in patent publication US20040152715A1, “Cycloalkylene amide compounds as NR2B receptor antagonists” (priority 2002, published 2004).

One series concerns the target T1, NR2B receptor (Rattus norvegicus, UniProt P35439+Q00960).
T1 construct: Membranes were prepared by homogenization of forebrain of male CD rats; from tissue; host or cells: rat forebrain P2 membranes
Put plainly: NR2B Binding Assay. As to conditions: statement in words in Background Art on prior-art compounds; test not named. The method, then:
The activity of the cycloalkylene amide compounds of the present invention, as NR2B antagonists, is determined by their ability to inhibit the binding of NR2B subunit at its receptor sites employing radioactive ligands.
The NR2B antagonist activity of the cycloalkylene amide compounds is evaluated by using the standard assay procedure described in, for example, J. Pharmacol., 331, pp117-126, 1997. This method essentially involves determining the concentration of the individual compound required to reduce the amount of radiolabelled NR2B ligands by 50% at their receptor sites, thereby affording characteristic IC50 values for each compound tested. More specifically, the assay is carried out as follows.
Membranes were prepared by homogenization of forebrain of male CD rats weighing between 170˜190 g by using glass-Teflon homogenizer in 0.32 M sucrose at 4° C. The crude nuclear pellet was removed by centrifugation at 1000×g for 10 min, and the supernatant centrifuged at 17000×g for 25 min. […]
For the saturation assay, receptor saturation was determined by incubating [^3H]-CP-98,113 and 50 μg protein of P2 membrane for 60 minutes at room temperature in a final 100 μl of incubation buffer (50 mM Tris HCl, pH7.4). Total and non-specific bindings (in the presence of 10 μM of unlabeled CP-98,113) were determined in a range of [^3H]-CP-98113 concentrations (0.625 nM to 60 nM). […]
For the competition assay, test compounds were incubated in duplicate with 5 nM [^3H]-CP-98,113 and 50 μg protein of P2 membrane for 60 minutes at room temperature in a final 100 μl of 50 mM Tris HCl buffer (pH7.4). Nonspecific binding was determined by 10 μM of unlabeled CP-98,113 (25 μl). […]
All incubations were terminated by rapid vacuum filtration over 0.2% polyethyleneimine soaked Whatman GF/B glass fibre filter paper using a SKATRON cell harvester followed by three washes with ice-cold filtration buffer (5 mM Tris HCl, pH 7.4.). Receptor-bound radioactivity was quantified by liquid scintillation counting using Packard LS counter. […]

Another series concerns the target T2, human NR1b/2B receptor (Homo sapiens, UniProt Q13224).
T2 construct: expressed in transfected cells
Nature of the series: Human NR2B Cell Functional Assay. The following applies: statement in words in Background Art; test not named. The class given is cell-based. The method, then: Human NR2B Cell Functional Assay
HEK293 cells stably expressing human NR1b/2B receptor were used for cell functional assay. Cells were grown in 75-cm^2 culture flasks, using Dulbecco's modified Eagle's medium (DMEM, high glucose) supplemented with 10% fetal bovine, 52 μg/ml Zeocin, 530 μg/ml Geneticin, 100 units/ml penicillin and 100 μg/ml streptomycin. Cells were maintained in a humidified atmosphere in 5% CO2 at 37° C., and 50-60% confluent cells were harvested by 0.05% trypsin containing 0.53 mM EDTA. The day before the experiment, expression of NR1b/2B receptor was induced by 5 μM ponasteron A in DMEM (40 ml) in the presence of 400 μM ketamine to prevent excitotoxicity. […]
Cells were washed with 10 ml of Ca^2+-free Krebs-Ringer Hepes buffer (KRH) containing 400 μM ketamine, and the loading of 5 μM fura-2 acetoxymethyl ester was made for 2 hrs at room temperature in the presence of 400 μM ketamine in Ca^2+-free KRH (10 ml). […] Fura-2 fluorescence (excitation wavelengths: 340 nm and 380 nm; emission wavelengths 510-520 nm) was monitored with a fluorescence imaging system, FDSS6000. The Δ fluorescence ratio F340/F380 (i.e., the fluorescence ratio immediately post-agonist—the basal fluorescence ratio; calculated as AUC) was used for evaluation of drug effects on agonists-induced changes in intracellular Ca^2+. The basal fluorescence ratio was determined in the presence of 10 μM MK-801.

Another series can be described thus: QT prolongation. As to conditions: statement in words in Background Art; attributed to HERG inhibition.

T1 sequence (Q00960 27-1482, other chains not shown): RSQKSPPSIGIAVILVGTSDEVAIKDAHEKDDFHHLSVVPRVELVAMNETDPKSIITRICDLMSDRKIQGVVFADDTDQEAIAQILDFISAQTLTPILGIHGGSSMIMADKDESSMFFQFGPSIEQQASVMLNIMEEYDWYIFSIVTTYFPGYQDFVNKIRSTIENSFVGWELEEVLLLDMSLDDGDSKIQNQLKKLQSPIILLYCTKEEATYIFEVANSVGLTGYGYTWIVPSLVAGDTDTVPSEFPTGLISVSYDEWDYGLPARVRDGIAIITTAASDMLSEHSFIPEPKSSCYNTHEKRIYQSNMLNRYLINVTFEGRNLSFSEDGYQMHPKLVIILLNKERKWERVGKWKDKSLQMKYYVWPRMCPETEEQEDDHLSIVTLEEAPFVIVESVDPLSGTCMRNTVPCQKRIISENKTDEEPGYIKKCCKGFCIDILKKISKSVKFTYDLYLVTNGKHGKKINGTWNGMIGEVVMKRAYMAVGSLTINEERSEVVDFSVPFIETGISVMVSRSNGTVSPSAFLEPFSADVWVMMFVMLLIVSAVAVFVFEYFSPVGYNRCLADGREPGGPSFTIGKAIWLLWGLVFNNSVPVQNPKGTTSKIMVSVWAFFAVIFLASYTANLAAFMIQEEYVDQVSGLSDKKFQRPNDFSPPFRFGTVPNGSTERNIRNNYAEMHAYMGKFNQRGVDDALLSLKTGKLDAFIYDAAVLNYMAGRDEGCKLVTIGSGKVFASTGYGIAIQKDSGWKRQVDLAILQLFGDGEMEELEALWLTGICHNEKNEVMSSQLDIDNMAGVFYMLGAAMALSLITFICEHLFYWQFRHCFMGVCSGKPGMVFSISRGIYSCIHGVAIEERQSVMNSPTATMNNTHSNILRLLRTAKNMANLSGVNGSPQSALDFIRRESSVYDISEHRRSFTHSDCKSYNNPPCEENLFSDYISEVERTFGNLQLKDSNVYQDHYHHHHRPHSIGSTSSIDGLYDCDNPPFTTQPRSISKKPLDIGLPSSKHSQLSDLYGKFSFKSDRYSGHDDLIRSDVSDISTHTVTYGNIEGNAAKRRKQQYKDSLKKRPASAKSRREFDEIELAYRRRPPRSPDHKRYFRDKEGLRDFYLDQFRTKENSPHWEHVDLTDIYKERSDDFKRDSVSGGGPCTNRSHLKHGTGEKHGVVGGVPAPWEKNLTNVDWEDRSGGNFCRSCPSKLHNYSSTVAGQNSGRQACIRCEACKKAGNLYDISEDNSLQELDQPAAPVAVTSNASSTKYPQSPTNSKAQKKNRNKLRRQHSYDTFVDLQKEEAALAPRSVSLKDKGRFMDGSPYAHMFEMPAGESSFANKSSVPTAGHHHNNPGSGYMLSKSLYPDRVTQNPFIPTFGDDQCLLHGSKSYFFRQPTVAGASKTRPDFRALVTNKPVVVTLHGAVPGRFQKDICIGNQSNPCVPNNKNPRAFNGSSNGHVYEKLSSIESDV
T2 sequence (Q13224 27-1484): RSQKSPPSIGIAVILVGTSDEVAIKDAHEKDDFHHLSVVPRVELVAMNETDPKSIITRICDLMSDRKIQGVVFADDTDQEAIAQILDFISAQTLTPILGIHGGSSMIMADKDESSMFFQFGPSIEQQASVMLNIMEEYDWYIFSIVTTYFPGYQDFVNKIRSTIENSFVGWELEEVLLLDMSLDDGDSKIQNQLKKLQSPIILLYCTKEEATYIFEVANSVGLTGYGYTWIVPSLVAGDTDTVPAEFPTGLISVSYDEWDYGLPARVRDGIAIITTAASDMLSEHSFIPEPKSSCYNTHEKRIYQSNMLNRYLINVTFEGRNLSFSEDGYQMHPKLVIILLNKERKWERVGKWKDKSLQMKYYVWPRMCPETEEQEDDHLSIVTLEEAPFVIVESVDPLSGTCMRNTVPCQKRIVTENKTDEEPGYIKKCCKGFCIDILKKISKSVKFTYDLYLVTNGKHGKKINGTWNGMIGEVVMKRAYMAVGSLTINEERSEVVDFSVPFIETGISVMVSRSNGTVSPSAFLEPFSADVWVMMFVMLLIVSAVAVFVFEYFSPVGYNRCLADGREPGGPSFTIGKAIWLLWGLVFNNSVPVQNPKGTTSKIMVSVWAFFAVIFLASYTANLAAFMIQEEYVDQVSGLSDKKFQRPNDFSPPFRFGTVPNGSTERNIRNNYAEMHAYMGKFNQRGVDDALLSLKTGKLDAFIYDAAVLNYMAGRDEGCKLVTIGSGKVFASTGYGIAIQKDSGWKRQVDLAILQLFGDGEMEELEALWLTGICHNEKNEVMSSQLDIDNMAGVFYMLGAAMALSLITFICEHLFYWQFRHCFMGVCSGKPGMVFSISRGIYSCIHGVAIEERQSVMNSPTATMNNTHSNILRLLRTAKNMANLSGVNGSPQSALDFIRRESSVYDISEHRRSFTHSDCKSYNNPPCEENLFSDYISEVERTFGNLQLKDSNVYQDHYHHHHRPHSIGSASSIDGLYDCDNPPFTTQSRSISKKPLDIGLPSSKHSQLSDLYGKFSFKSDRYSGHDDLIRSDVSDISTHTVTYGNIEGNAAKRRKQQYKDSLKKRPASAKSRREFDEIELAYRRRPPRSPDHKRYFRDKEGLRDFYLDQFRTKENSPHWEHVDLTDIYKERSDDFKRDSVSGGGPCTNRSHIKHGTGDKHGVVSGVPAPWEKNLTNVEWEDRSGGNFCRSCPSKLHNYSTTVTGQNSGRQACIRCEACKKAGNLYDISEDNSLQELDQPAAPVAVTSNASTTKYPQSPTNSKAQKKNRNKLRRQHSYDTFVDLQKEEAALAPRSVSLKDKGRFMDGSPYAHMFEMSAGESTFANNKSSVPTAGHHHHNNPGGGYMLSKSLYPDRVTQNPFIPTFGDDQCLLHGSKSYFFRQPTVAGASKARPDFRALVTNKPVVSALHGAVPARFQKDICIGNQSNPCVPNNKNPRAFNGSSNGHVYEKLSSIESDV

`O=C(CCc1ccccc1)N[C@H]1CO[C@H](c2ccc(O)cc2)OC1` [B]: the “binding affinity (NR2B receptor)” value at NR2B receptor is reported as “insufficient”. Also, the “NR2B receptor antagonist activity” value on human NR1b/2B receptor was “insufficient”.
Turning to `O=C(CCc1ccccc1)N[C@H]1CC[C@H](c2ccc(O)cc2)CC1` [Compound A], the “binding affinity (NR2B receptor)” value at NR2B receptor was “insufficient”.
On to `CN(CCCc1ccc(F)cc1)[C@H]1CC[C@H](c2ccc3[nH]c(=O)oc3c2)CC1` [Compound E], for which the “binding affinity (NR2B receptor)” value on NR2B receptor was “potent”. Also, the QT prolongation result in “QT prolongation” is reported as “shows QT prolongation”.
For orientation: melting point means the temperature, or range, at which the solid turns liquid. In turn, `O=C(CCc1ccc(Cl)cc1Cl)N[C@H]1CC[C@](O)(c2ccc(O)cn2)CC1` [Example 7, 3-(2,4-dichlorophenyl)-N-[cis-4-hydroxy-4-(5-hydroxypyridin-2-yl)cyclohexyl]propanamide] gave a melting point of 198.1 °C.
On the same count and under the same terms, the result for `O=C(CCc1ccc(F)cc1)N[C@H]1CC[C@H](c2ccc(O)cn2)CC1` [Example 12, 3-(4-fluorophenyl)-N-[trans-4-(5-hydroxypyridin-2-yl)cyclohexyl]propanamide] reads 195.4 °C.
